Source: patent US7491705B2, “Alpha-ketoamide derivative, and production method and use thereof” (Senju Pharmaceutical Co., Ltd., priority 2003, dated 2009)
Converted amounts (≈) assume the structure as drawn.

Tests used:
[1] = system: T1, μ-calpain; format: biochemical; conditions: μ-calpain derived from human red blood cells; 30° C., 60 minutes; read-out: Enzyme inhibitory activity μ-calpain (IC50)
T1 construct: μ-calpain (derived from human red blood cells; available from Cosmo Bio Co. Ltd.); purchased Cosmo Bio Co. Ltd; host or cells: purified from human red blood cells
Description: (1) Measurement of Inhibitory Activity Against μ-Calpain and m-Calpain
The inhibitory activity against μ-calpain and m-calpain was assayed according to the method described in Anal. Biochem. 1993, vol. 208, p. 387-392. That is, to 2.5 μL of a DMSO solution containing a varying concentration of the test sample in a 96-well plate was added 200 μL of a reaction solution containing 0.5 mg/mL casein, 50 mM Tris-HCl buffer (pH 7.4), 20 mM dithiothreitol and 1.0 nmol μ-calpain (derived from human red blood cells; available from Cosmo Bio Co. Ltd.) or m-calpain (derived from porcine kidney; available from Cosmo Bio Co. Ltd.). After 20 mM aqueous calcium chloride (50 μL) was added thereto, the mixture was incubated at 30° C. for 60 minutes. Then, 100 μL of the reaction solution was transferred to another 96-well plate, and purified water (50 μL) and 50% aqueous solution (100 μL) of Protein Assay Dye Reagent (available from Bio-Rad Laboratories, Inc.; catalogue No. 500-600) were added thereto. The reaction mixture was allowed to stand at room temperature for 15 minutes, and its absorbance was measured at 595 nm.
The absorbance of a reaction mixture prepared in the same manner as mentioned above, except that a DMSO solution contained no sample, was used as a control value, and that of a reaction mixture prepared in the same manner as mentioned above, except that 1 mM aqueous EDTA solution (50 μL) was used in place of 20 mM aqueous calcium chloride, was used as a blank value. […] Inhibition rate (%)={1−(measured value minus blank value)/(control value minus blank value)}×100

[2] = Partition coefficient using IAM column; format: physicochemical; conditions: IAM Fast Screening Mini-Column; Dulbecco's phosphate buffer (pH 7.4)
Description: Analysis by HPLC system was carried out under the conditions given below, and retention time of each substance was measured. • Column: IAM Fast Screening Mini-Column (Regis Technologies, Inc.) • Mobile phase: Dulbecco's phosphate buffer (pH 7.4) • Detection wavelength: 250 nm • Column temperature: room temperature • Injection amount: 5.0 to 20 μL • Flow rate: 0.5 mL/min • Sample solution: 5 mg of sample was dissolved in 100 μL of acetonitrile, and a mobile phase was added to make 1 mL of a sample solution.
The measured value was inserted into the following formula, and the partition coefficient (K′ IAM) was calculated. k′IAM=(tR−t0)/t0 t0: retention time of the peak derived from acetonitrile tR: retention time of the peak of the sample

[3] = in vitro; conditions: human, Caco-2
Description: As a culture medium for the incubation, Dulbecco's modified Eagle's minimum essential medium (GIBCO BRL) supplemented with 10% fetal calf serum (GIBCO BRL), antibiotic-antimycotic mixture, liquid (GIBCO BRL), non-essential amino acid solution (GIBCO BRL) and 2 mmol/L L-glutamine (GIBCO BRL) was used. […] Propranolol was used as a positive control, and ^14C-mannitol was used as a negative control. LC-MS/MS was used for quantitative analysis of samples, and a liquid scintillation counter was used for quantitative analysis of ^14C-mannitol.
Papp: apparent permeation coefficient (cm/sec)
δQ/δt: permeation velocity (pmol/min)
A: area of monolayer cell=0.33 cm^2
C0: initial concentration at apical membrane side (pmol/mL)

[4] = Solubility in 10 mM phosphate buffer (pH 7.0); format: physicochemical
Description: Solubility of the compounds of the present invention in 10 mM phosphate buffer (pH 7.0) was measured.

[5] = Transportation rate into blood after oral administration; format: in vivo, Macaca fascicularis (crab-eating monkey); conditions: cynomolgus monkey, 10 mg/kg, Macaca fascicularis, plasma; for AUC(0-t): read-out: AUC 0→4 hr
Description: The compound of the present invention was administered orally to Macaca fascicularis (crab-eating monkey) at a dose of 10 mg/kg. The blood was collected with the lapse of time, and the concentration of each compound in the plasma was measured.

In the case of `COCCOC(=O)N[C@@H](CC(C)C)C(=O)N[C@@H](Cc1ccccc1)C(=O)C(=O)NCC(F)(F)F` [Compound 10, ((1S)-1-((((1S)-1-Benzyl-2,3-dioxo-3-(2,2,2-trifluoroethylamino)propyl)amino)carbonyl)-3-methylbutyl)carbamic acid 2-methoxyethyl ester], the IC50 [1] is reported as 450 nM.

With `CCNC(=O)C(=O)[C@H](Cc1ccccc1)NC(=O)[C@H](CC(C)C)NC(=O)OC1CCOCC1` [Compound 3, ((1S)-1-((((1S)-1-Benzyl-2,3-dioxo-3-(ethylamino)propyl)amino)carbonyl)-3-methylbutyl)carbamic acid tetrahydro-4H-pyran-4-yl ester] the IC50 [1] was 250 nM.

With `CC(C)NCC(O)COc1cccc2ccccc12` (stereo not drawn) [Propranolol, reference compound] the “IAM (Log k′IAM)” value [2] was 1.95 and the Papp A→B at 10 μm [3] was 8.5 ×10⁻⁶ cm/s.

With `COCCNC(=O)C(=O)[C@H](Cc1ccccc1)NC(=O)[C@H](CC(C)C)NC(=O)OCCOC` [Compound 12, ((1S)-1-((((1S)-1-Benzyl-2,3-dioxo-3-(2-methoxyethylamino)propyl)amino)carbonyl)-3-methylbutyl)carbamic acid 2-methoxyethyl ester] the IC50 [1] was 180 nM.

`COCCOC(=O)N[C@@H](CC(C)C)C(=O)N[C@@H](CCc1ccccc1)C(=O)C(=O)NC1CC1` [Compound 15, ((1S)-1-((((1S)-2,3-Dioxo-3-cyclopropylamino-1-(phenylethyl)propyl)amino)carbonyl)-3-methylbutyl)carbamic acid 2-methoxyethyl ester] gave an IC50 [1] of 180 nM.

Work on `COCCOC(=O)N[C@@H](CC(C)C)C(=O)N[C@@H](Cc1ccccc1)C(=O)C(=O)NC1Cc2ccccc2C1` [Compound 11, ((1S)-1-((((1S)-1-Benzyl-2,3-dioxo-3-(2-indanylamino)propyl)amino)carbonyl)-3-methylbutyl)carbamic acid 2-methoxyethyl ester] yielded an IC50 [1] of 170 nM.

Work on `CCNC(=O)C(=O)[C@H](CCc1ccccc1)NC(=O)[C@H](CC(C)C)NC(=O)O[C@H]1CCOC1` [Compound 14, ((1S)-1-((((1S)-2,3-Dioxo-3-ethylamino-1-(phenylethyl)propyl)amino)carbonyl)-3-methylbutyl)carbamic acid (3S)-tetrahydrofuran-3-yl ester] yielded an IC50 [1] of 160 nM.

For `COCCOCCOC(=O)N[C@@H](CC(C)C)C(=O)N[C@@H](CC(C)C)C(=O)C(=O)NCCOc1ccccc1` [Compound 22, ((1S)-1-((((1S)-2,3-Dioxo-1-(2-methylpropyl)-3-(2-phenoxyethyl)aminopropyl)amino)carbonyl)-3-methylbutyl)carbamic acid 5-methoxy-3-oxapentyl ester], the IC50 [1] was 90 nM.

Work on `CCNC(=O)C(=O)[C@H](CCc1ccccc1)NC(=O)[C@H](CC(C)C)NC(=O)OCCOC` [Compound 13, ((1S)-1-((((1S)-2,3-Dioxo-3-ethylamino-1-(phenylethyl)propyl)amino)carbonyl)-3-methylbutyl)carbamic acid 2-methoxyethyl ester] yielded an IC50 [1] of 300 nM.

For `CCNC(=O)C(=O)[C@H](Cc1ccccc1)NC(=O)[C@H](CC(C)C)NC(=O)O[C@H]1CCOC1` [Compound 2, ((1S)-1-((((1S)-1-Benzyl-2,3-dioxo-3-(ethylamino)propyl)amino)carbonyl)-3-methylbutyl)carbamic acid (3S)-tetrahydrofuran-3-yl ester], the IC50 [1] was 150 nM.

With `CCCNC(=O)C(=O)[C@H](Cc1ccccc1)NC(=O)[C@H](CC(C)C)NC(=O)OCCOC` [Compound 7] the IC50 [1] was 100 nM.

`CCCCNC(=O)C(=O)[C@H](Cc1ccccc1)NC(=O)[C@H](CC(C)C)NC(=O)OCCOC` [Compound 9, ((1S)-1-((((1S)-1-Benzyl-3-butylamino-2,3-dioxo-propyl)amino)carbonyl)-3-methylbutyl)carbamic acid 2-methoxyethyl ester] showed an IC50 [1] of 100 nM.

Molecule `COCCOCCOC(=O)N[C@@H](CC(C)C)C(=O)NC(Cc1ccccc1)C(=O)C(N)=O` (mixture of isomers) [Compound 23, ((1S)-1-((((1RS)-3-amino-1-benzyl-2,3-dioxopropyl)amino)carbonyl)-3-methylbutyl)carbamic acid 5-methoxy-3-oxapentyl ester] has an IC50 [1] of 190 nM.

`COCCOCCOCCOC(=O)N[C@@H](CC(C)C)C(=O)N[C@@H](Cc1ccccc1)C(=O)C(=O)NC1CC1` [Compound 18, ((1S)-1-((((1S)-1-Benzyl-2,3-dioxo-3-(cyclopropylamino)propyl)amino)carbonyl)-3-methylbutyl)carbamic acid 8-methoxy-3,6-dioxaoctyl ester] showed a Solubility [4] of 5400 µg/mL (≈ 10.1 mM), a Cmax [5] of 660 nM and an AUC(0-t) [5] of 1.6 µM·h. For the same molecule, the “IAM (Log k′IAM)” value [2] was 1.38.

With `COCCOCCOCCOCCOC(=O)N[C@@H](CC(C)C)C(=O)N[C@@H](Cc1ccccc1)C(=O)C(=O)NC1CC1` [Compound 19, ((1S)-1-((((1S)-1-Benzyl-2,3-dioxo-3-(cyclopropylamino)propyl)amino)carbonyl)-3-methylbutyl)carbamic acid 11-methoxy-3,6,9-trioxaundecanyl ester] the Solubility [4] was 8300 µg/mL (≈ 14.3 mM), the Cmax [5] was 900 nM and the AUC(0-t) [5] was 1.6 µM·h. For the same molecule, the “IAM (Log k′IAM)” value [2] was 1.44.

With `COCCOC(=O)N[C@@H](CC(C)C)C(=O)N[C@@H](CC(C)C)C(=O)C(=O)NCCOc1ccccc1` [Compound 21, ((1S)-1-((((1S)-2,3-Dioxo-1-(2-methylpropyl)-3-(2-phenoxyethyl)aminopropyl)amino)carbonyl)-3-methylbutyl)carbamic acid 2-methoxyethyl ester] the IC50 [1] was 80 nM.

In the case of `CC(C)C[C@H](NC(=O)O[C@H]1CCOC1)C(=O)N[C@@H](Cc1ccccc1)C(=O)C(=O)NC1CC1` [Compound 5, ((1S)-1-((((1S)-1-Benzyl-3-(cyclopropylamino)-2,3-dioxo-propyl)amino)carbonyl)-3-methylbutyl)carbamic acid (3S)-tetrahydrofuran-3-yl ester], the IC50 [1] is reported as 90 nM.

For `CCNC(=O)C(=O)[C@H](Cc1ccccc1)NC(=O)[C@H](CC(C)C)NC(=O)OCCOC` [Compound 1, ((1S)-1-((((1S)-1-Benzyl-2,3-dioxo-3-(ethylamino)propyl)amino)carbonyl)-3-methylbutyl)carbamic acid 2-methoxyethyl ester], the IC50 [1] was 170 nM.

Molecule `CC(C)C[C@H](NC(=O)OC1CCOCC1)C(=O)N[C@@H](Cc1ccccc1)C(=O)C(=O)NC1CC1` [Compound 6, ((1S)-1-((((1S)-1-Benzyl-3-cyclopropylamino-2,3-dioxo-propyl)amino)carbonyl)-3-methylbutyl)carbamic acid tetrahydro-4H-pyran-4-yl ester] has an IC50 [1] of 120 nM.

`COCCOCCOCCOCCOCCOC(=O)N[C@@H](CC(C)C)C(=O)N[C@@H](Cc1ccccc1)C(=O)C(=O)NC1CC1` [Compound 20, ((1S)-1-((((1S)-1-Benzyl-2,3-dioxo-3-(cyclopropylamino)propyl)amino)carbonyl)-3-methylbutyl)carbamic acid 14-methoxy-3,6,9,12-tetraoxa-tetradecanyl ester] showed a Solubility [4] of 16300 µg/mL (≈ 26.1 mM).

Molecule `COCCOC(=O)N[C@@H](CC(C)C)C(=O)N[C@@H](Cc1ccccc1)C(=O)C(=O)NC1CCC1` [Compound 8, ((1S)-1-((((1S)-1-Benzyl-2,3-dioxo-3-(cyclobutylamino)propyl)amino)carbonyl)-3-methylbutyl)carbamic acid 2-methoxyethyl ester] has an IC50 [1] of 170 nM.

In the case of `CC(C)C[C@H](NC(=O)OCCc1ccccn1)C(=O)N[C@@H](Cc1ccccc1)C(=O)C(=O)NC1CC1` [Compound 24, ((1S)-1-((((1S)-1-benzyl-3-(cyclopropylamino)-2,3-dioxo-propyl)amino)carbonyl)-3-methylbutyl)carbamic acid 2-(pyridin-2-yl)ethyl ester], the IC50 [1] is reported as 29 nM.

With `CC(C)C[C@H](NC(=O)O[C@H]1CCOC1)C(=O)N[C@@H](CCc1ccccc1)C(=O)C(=O)NC1CC1` [Compound 16, ((1S)-1-((((1S)-2,3-Dioxo-3-cyclopropylamino-1-(phenylethyl)propyl)amino)carbonyl)-3-methylbutyl)carbamic acid (3S)-tetrahydro-furan-3-yl ester] the IC50 [1] was 140 nM.
